Data reported in patent US20230293526A1, “METHOD FOR TREATING CANCER WITH A REVERSE TRANSCRIPTASE INHIBITOR” (PrimeFour Therapeutics, Inc., priority 2020, published 2023).

Legend:
Assay in all cases: Cell proliferation Ex.3
Type in all cases: cell-based
5637 = tested on: 5637
A2780 = conditions: Homo sapiens
A549 = conditions: Homo sapiens
BXPC3 = conditions: Homo sapiens, BXPC-3
CACO2 = conditions: Homo sapiens, Caco-2
EFO21 = conditions: Homo sapiens, EFO-21
GRANTA-519 = conditions: Homo sapiens
HCT116 = conditions: Homo sapiens, HCT-116
HEK293 = conditions: Homo sapiens
HEPG2 = conditions: Homo sapiens
HS578T = conditions: Homo sapiens, Hs-578T
JAR = tested on: JAR
LOVO = conditions: Homo sapiens
MCF7 = conditions: Homo sapiens
MT3 = conditions: MT-3
MV4-11 = conditions: Homo sapiens
NCI-H292 = conditions: Homo sapiens
OVCAR3 = conditions: Homo sapiens, OVCAR-3
PANC1005 = conditions: Homo sapiens
PANC1 = conditions: Homo sapiens, PANC-1
RDES = conditions: RD-ES
SF268 = conditions: Homo sapiens, SF-268
SKBR3 = conditions: Homo sapiens, SK-BR-3
SKHEP1 = conditions: Homo sapiens, SK-HEP1
Summary of the method: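 Cells were seeded and held overnight at 37 °C, then exposed to a compound dilution series for […] at 37 °C under 5% or 10% CO2 depending on medium. Viability was read by CellTiterGlo luminescence and expressed as percent relative to high and low controls.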

SU-DHL-6 = conditions: Homo sapiens
THP-1 = conditions: Homo sapiens

C#C[C@]1(CO)O[C@@H](n2cc(F)c(N)nc2=O)C[C@@H]1O [compound 9]
IC50 (5637; 5637, 72 h): > 10 µM
IC50 (5637; 5637, 120 h): > 10 µM
IC50 (5637; 5637, 168 h): > 10 µM
IC50 (A2780; A2780, 72 h): > 10 µM
IC50 (A2780; A2780, 120 h): > 10 µM
IC50 (A2780; A2780, 168 h): > 10 µM
IC50 (A549; A549, 72 h): > 10 µM
IC50 (A549; A549, 120 h): > 10 µM
IC50 (A549; A549, 168 h): > 10 µM
IC50 (BXPC3; BXPC3, 72 h): > 10 µM
IC50 (BXPC3; BXPC3, 120 h): 1.29 µM
IC50 (BXPC3; BXPC3, 168 h): 0.59 µM
IC50 (CACO2; CACO2, 72 h): > 10 µM
IC50 (CACO2; CACO2, 120 h): > 10 µM
IC50 (CACO2; CACO2, 168 h): > 10 µM
IC50 (EFO21; EFO21, 72 h): > 10 µM
IC50 (EFO21; EFO21, 120 h): > 10 µM
IC50 (EFO21; EFO21, 168 h): > 10 µM
IC50 (GRANTA-519; Granta-519, 72 h): 4.98 µM
IC50 (GRANTA-519; Granta-519, 120 h): 0.24 µM
IC50 (GRANTA-519; Granta-519, 168 h): 0.35 µM
IC50 (HCT116; HCT116, 72 h): > 10 µM
IC50 (HCT116; HCT116, 120 h): > 10 µM
IC50 (HCT116; HCT116, 168 h): > 10 µM
IC50 (HEK293; HEK293, 72 h): > 10 µM
IC50 (HEK293; HEK293, 120 h): > 10 µM
IC50 (HEK293; HEK293, 168 h): > 10 µM
IC50 (HEPG2; HepG2, 72 h): > 10 µM
IC50 (HEPG2; HepG2, 120 h): > 10 µM
IC50 (HEPG2; HepG2, 168 h): > 10 µM
IC50 (HS578T; 72 h): > 10 µM
IC50 (HS578T; 120 h): > 10 µM
IC50 (HS578T; 168 h): > 10 µM
IC50 (JAR; 72 h): > 10 µM
IC50 (JAR; 120 h): > 10 µM
IC50 (JAR; 168 h): > 10 µM
IC50 (LOVO; 72 h): > 10 µM
IC50 (LOVO; 120 h): 3.28 µM
IC50 (LOVO; 168 h): 2.06 µM
IC50 (MCF7; MCF7, 72 h): > 10 µM
IC50 (MCF7; MCF7, 120 h): > 10 µM
IC50 (MCF7; MCF7, 168 h): > 10 µM
IC50 (MT3; MT3, 72 h): > 10 µM
IC50 (MT3; MT3, 120 h): 3.04 µM
IC50 (MT3; MT3, 168 h): > 10 µM
IC50 (MV4-11; MV4-11, 72 h): 2.48 µM
IC50 (MV4-11; MV4-11, 120 h): 0.251 µM
IC50 (MV4-11; MV4-11, 168 h): 1.72 µM
IC50 (NCI-H292; NCI-H292, 72 h): > 10 µM
IC50 (NCI-H292; NCI-H292, 120 h): > 10 µM
IC50 (NCI-H292; NCI-H292, 168 h): > 10 µM
IC50 (OVCAR3; OVCAR3, 72 h): > 10 µM
IC50 (OVCAR3; OVCAR3, 120 h): > 10 µM
IC50 (OVCAR3; OVCAR3, 168 h): > 10 µM
IC50 (PANC1005; Panc1005, 72 h): > 10 µM
IC50 (PANC1005; Panc1005, 120 h): > 10 µM
IC50 (PANC1005; Panc1005, 168 h): > 10 µM
IC50 (PANC1; PANC1, 72 h): > 10 µM
IC50 (PANC1; PANC1, 120 h): > 10 µM
IC50 (PANC1; PANC1, 168 h): > 10 µM
IC50 (RDES; 72 h): > 10 µM
IC50 (RDES; 120 h): > 10 µM
IC50 (RDES; 168 h): > 10 µM
IC50 (SF268; SF268, 72 h): > 10 µM
IC50 (SF268; SF268, 120 h): > 10 µM
IC50 (SF268; SF268, 168 h): > 10 µM
IC50 (SKBR3; SKBR3, 72 h): 1.45 µM
IC50 (SKBR3; SKBR3, 120 h): 0.96 µM
IC50 (SKBR3; SKBR3, 168 h): 0.37 µM
IC50 (SKHEP1; SKHEP1, 72 h): > 10 µM
IC50 (SKHEP1; SKHEP1, 120 h): > 10 µM
IC50 (SKHEP1; SKHEP1, 168 h): > 10 µM
IC50 (SU-DHL-6; SU-DHL-6, 72 h): > 10 µM
IC50 (SU-DHL-6; SU-DHL-6, 120 h): 4.99 µM
IC50 (SU-DHL-6; SU-DHL-6, 168 h): 1.3 µM
IC50 (THP-1; THP-1, 72 h): > 10 µM
IC50 (THP-1; THP-1, 120 h): > 10 µM
IC50 (THP-1; THP-1, 168 h): > 10 µM
